Experimental findings from patent publication US10314816B2, “Antimicrobial compounds, compositions and methods of use thereof” (Wisconsin Alumni Research Foundation, priority 2012, dated 2019) are described below.

For one test, the system named is C. crescentus cells. Nature of the test: Measurement of ΔΨ using DiOC2, fluorescence microscopy. Particulars: 20 minutes of treatment, p<0.001. In kind it is cell-based, Caulobacter crescentus. The procedure:
For experiments with C. crescentus cells, the cells were prepared by diluting the overnight culture 10-fold into fresh PYE medium. The diluted culture was grown for 1 hour at 200 rpm and 30° C. The cells were treated with compounds for 10 minutes at room temperature, DiOC2 dye was added to a final concentration of 30 μM, and incubated for 10 minutes. After labeling, small aliquots (1-2 μl) of the suspensions of cells were transferred onto 1% agarose pads for fluorescence microscopy. A Nikon Eclipse TE2000E inverted microscope with an Andor DU-895 EMCCD camera, a Perfect Focus system, and an encoded z-stage were used for phase contrast and epifluorescence microscopy. For detecting green and red fluorescence of the dye, the following wavelengths (λex/λem): 484/520 nm and 555/620 nm, respectively, were used. Acquired images were analyzed using the MATLAB-based script MicrobeTracker. […] The segmentation was applied to the fluorescence images to calculate the fluorescence intensity for individual cells. A separate MATLAB script was written to process the results from MicrobeTracker, in which the cell-area normalized ratio of red to green fluorescence for each cell was calculated.
ΔΨ was measured for two model bacteria, C. crescentus (Gram-negative) and Bacillus subtilis (Gram-positive), in the absence and presence of DCAP. […] DiOC2 emits green fluorescence (λ=530 nm) in its monomeric form. […]

Another test deals with C. crescentus CB15N. Description: Minimum stationary-bactericidal concentration (MSC). It is filed as cell-based, Caulobacter crescentus. Particulars: for MSC: C. crescentus CB15N, stationary cells, 24 hours. The protocol:
Determination of the Minimum Stationary-Bactericidal Concentration.
Cultures of C. crescentus (24 hour incubation) and S. aureus cells (5 day incubation) were grown from single colonies. Cells were collected by centrifugation (8500 rpm for 2.5 minutes) and re-suspended in M2 salt solution (for C. crescentus; 1.74 g/L Na2HPO4, 1.06 g/L KH2PO4, and 0.5 g/L NH4Cl) or phosphate-buffered saline (for S. aureus; PBS, Fisher Scientific). The centrifugation and re-suspension was repeated two more times. After the repeated washing steps, the cell suspension was diluted 10-fold to achieve approximately 10^8 cells/mL. Aliquots of the diluted cell suspension were transferred into wells of a 96-well plate (100 μL/well), and 2-fold serial dilutions were performed to test a range of antibiotic concentrations. The plate was sealed with Parafilm® and incubated for 24 hours at room temperature in the dark. After incubation, 50 μl was removed from each well to spread on nutrient agar plates (1.5% agar in PYE for C. crescentus, and LB for S. aureus). The colonies on each plate were counted after growing the cells for 1-2 days. For determining the kinetics of bactericidal activity of DCAP on stationary cultures, the washed cells were diluted by 100-fold in appropriate solutions and tested using a single concentration of the compound while including a DMSO control sample. Cell suspensions were kept in closed microcentrifuge tubes instead of the wells of 96-well plates. 100 μL of the suspensions was removed for plating at each time point. All MSC experiments were performed in static conditions.
In addition to its activity against actively growing bacteria, DCAP kills cells in stationary phase (Table 3). This property was tested against C. crescentus and S. aureus. […] To ensure that bacteria were deprived of nutrients, the cells were grown into late stationary phase (i.e., 24 hours for C. crescentus and 5 days for S. aureus). These cells were collected, suspended in isotonic solutions devoid of amino acids or sugars, and treated with a small molecule (DMSO, DCAP, CCCP or ampicillin). Cell viability was measured over time by plating culture aliquots on non-selective, solid growth media. The minimum concentration of antibiotic required to completely eliminate colony formation was designated as the minimum stationary-bactericidal concentration (MSC). […] CCCP inhibited the proliferation of C. crescentus cells regardless of their physiological status. However, the MSC of CCCP for S. aureus was >300-fold higher than the MIC. This dramatic decrease in the effectiveness of CCCP in S. aureus may be due to changes in membrane composition as cells adjust their metabolism in nutrient-deprived conditions.

On to `N#CC(C#N)=NNc1cccc(Cl)c1` [CCCP, carbonyl cyanide m-chlorophenyl hydrazone], for which the “ΔΨ (λ576/λ530 of DiOC2)” value with C. crescentus cells is listed as “significant decrease in λ576/λ530”. In the test with C. crescentus CB15N, this compound showed an MSC of 2.5 µM.

On to `OCC(CO)(CO)NCC(O)Cn1c2ccc(Cl)cc2c2cc(Cl)ccc21` (centres unmarked) [DCAP, 2-((3-(3,6-dichloro-9H-carbazol-9-yl)-2-hydroxypropyl)amino)-2-(hydroxymethyl)propane-1,3-diol], for which the “ΔΨ (λ576/λ530 of DiOC2)” value in the test on C. crescentus cells is reported as “significant decrease in λ576/λ530”. Besides, in the test with C. crescentus CB15N (C. crescentus), the “Minimum time required to obtain the MSC” value turned out to be 2 h. In the test with C. crescentus CB15N, this compound returned an MSC of 20 µM.
